# According to US5514648A, “Fungicidally active compounds” (priority 1990, dated 1996):
# Where a SMILES comes first, the peptide text is derived from it. [ ]: non-standard residue; d: D form. NMeI = CC[C@H](C)[C@H](NC)C(=O)O; NMeD = CN[C@@H](CC(=O)O)C(=O)O; NMeV = CN[C@H](C(=O)O)C(C)C; Pip = O=C(O)[C@@H]1CCCCN1; dLac = C[C@@H](O)C(=O)O
# Assays:
# [1] = tested on: F. lycopersici; test: Fungicidal activity, mycelial growth on potato dextrose agar; format: cell-based, Fusarium lycopersici; details: 25 to 0.0016 μg a.i. per ml agar, 3 to 6 days
# Method: (§1) Experiments were carried out to determine the potency of the compound of formula IV towards various fungi. The active ingredient was dissolved in 60% ethanol and added to cooled potato dextrose agar to give final concentrations of 25, 5, 1, 0.2, 0.04 and 0.0016 μg a.i. per ml agar, respectively. Control dishes contained no active ingredient.
# (§2) 10 ml Agar was poured into 9 cm petri dishes and each concentration was inoculated with actively growing mycelium of the fungal isolates tested for. The dishes were incubated at the optimum temperature for growth of the isolates for 3 to 6 days after which time the growth was measured in mm and compared to the controls.
# (§3) The test isolates covered a broad range of fungi within the Oomycetes, the Ascomycetes, the Basidiornycetes, the Deuterornycetes, and the Zygomycetes.
# [2] = tested on: Botrytis cinerea; test: Activity against Botrytis cinerea on apples (Golden Delicious); format: in vivo; details: suspension 9.8 μg active ingredient per ml; inoculated the following day; one week, 18°-20° C.; untreated fruits 100% infected
# Method: Artificially injured apples were sprayed with a suspension containing 9.8 μg active ingredient per ml.On the following day the treated fruits were inoculated with a spore suspension of the fungus containing 1×10^5 /ml, and incubated for a week at high air humidity and 18°-20° C. At the evaluation the infected places of injury were counted and from that the fungicidal effect of the test substance evaluated. […] The untreated fruits were 100% infected with Botrytis cinerea.
# [3] = tested on: Botrytis cinerea; test: Green house trial, Botrytis cinerea on tomatoes (Matador); format: in vivo; details: at all the tested concentrations 0.01%, 0.03%, and 0.09% a.i.
# Description: Green house trial performed in Lyngby, Denmark.
# A plot consisted of 7 plants (approximately 12 weeks old, 1 m high) and three replicates were used. The plants were kept in a plastic "tent" to maintain a high humidity. Before spraying the plants 20 leaves per plant were mechanically injured to improve the attack of Botrytis cinerea. The active compound was used in a test formulation containing approximately 10% active ingredient (a.i.). Three concentrations of active compound were applied: 0.01%, 0.03%, and 0.09% a.i. The water volume was 770 ml/plot.
# The tomatoes were sprayed just after wounding the leaves. 24 hours after fungicide treatment an artificial inoculation was done by spraying spores of B. cinerea suspended in 30% orange juice on the plants.
# The commercial fungicide RONILAN®was used as standard reference.
# The assessment was performed by counting the number of attacks on leaves, stalks, fruits, and flower buds.
# [4] = tested on: P. teres; test: Fungicidal activity, mycelial growth on potato dextrose agar; format: cell-based, Pyrenophora teres; details: in as low concentrations as 0.0016 μg/ml, 3 to 6 days
# Method: as §1, §2, §3
# [5] = tested on: Botrytis cinerea isolate A (resistant to BENLATE®); test: In vitro agar growth assay, fungicide resistant Botrytis cinerea; format: cell-based; details: 3 days, 25 C, control 76
# Method: (§4) Activity against fungicide resistant Botrytis cinerea isolates One isolate resistant to BENLATE® (isolate A), and one isolate resistant to BENLATE®,ROVRAL® and SUMISCLEX® (isolate B) were isolated from plants which had been sprayed with the above mentioned pesticides. The effect of BK 202 on these isolates was determined in an in vitro assay and compared with the three commercial pesticides. The fungicides were added to agar and dispensed in petri dishes at different concentrations and were inoculated with a sensitive (normal(isolate C)) and the two resistant strains. After 3 days at a temperature of 25 C growth was measured in mm.
# [6] = tested on: Botrytis cinerea isolate B (resistant to BENLATE®, ROVRAL® and SUMISCLEX®); test: as above; format: cell-based; details: 3 days, 25 C, control 80
# Method: as §4
# [7] = tested on: Oornycetous species; test: Fungicidal activity, mycelial growth on potato dextrose agar; format: cell-based, Oomycetes; details: 25 to 0.0016 μg a.i. per ml agar
# Method: as §1, §2, §3
# [8] = tested on: Ascomycetous species; test: as above; format: cell-based, Ascomycetes; details: 25 to 0.0016 μg a.i. per ml agar
# Method: as §1, §2, §3
# [9] = Temperature and pH stability (HPLC); format: physicochemical; details: buffer, 16 hours
# Method: Procedure: The compound BK202 was solubilized in buffer at the pHs indicated in FIG. 1, and then placed at 25°-55° C. for 16 hours. The buffers used were phosphate-citrate (T. C. McIlvaine, J. Biol. Chem. 49,183(1921), in the pH range 2.5-7 and from pH 7-9.5 is used TRIS 0.05 M. After 16 hours, the samples were filtered on a membrane filter 0.45 μm, and then analyzed by the HPLC method.
# However, this may reside in experimental error.
# Column: Spherisorb Hexyl 5 μm, 140 mm×4.6 mm
# Eluent: 55% Acetonitrile +0.1% Trifluor acetic Acid
# Retention time: ca. 6.3 minutes
# [10] = tested on: P. sorghina; test: Fungicidal activity, mycelial growth on potato dextrose agar; format: cell-based, Phoma sorghina; details: 25 to 0.0016 μg a.i. per ml agar, 3 to 6 days
# Method: as §1, §2, §3
# [11] = tested on: Botrytis cinerea; test: Activity against Botrytis cinerea on tomato plants; format: in vivo; details: liquid suspension 0.035 mg active ingredient per ml; inoculated after 24 hours; 6 days incubation; controls all overgrown
# Method: Tomato plants (variety "First in Field", 3 weeks old) were treated with a liquid suspension containing 0.035 mg active ingredient per ml. The plants were kept 24 hours in a green house to dry before they were inoculated with a spore suspension containing 10^5 Botrytis cinerea spores per ml in 25% grapefruit juice. […] Control plants that were treated as above except for the application of the active ingredient in suspension were all overgrown with Botrytis cinerea.
# [12] = tested on: A. pisi; test: Fungicidal activity, mycelial growth on potato dextrose agar; format: cell-based, Ascochyta pisi; details: in as low concentrations as 0.0016 μg/ml, 3 to 6 days
# Method: as §1, §2, §3
# [13] = Toxicology IC50, ATP; details: estimated
# Method: Based on these tests the IC50 values for BK 202 were estimated as: ATP >10 μg/ml;
# [14] = concentration 0.125 (unit not given)
# [15] = concentration 2 (unit not given)
# [16] = concentration 10 (unit not given)
compound,measurement,setting,value
"CC[C@H](C)[C@H]1C(=O)NCC(=O)N(C)[C@@H](C(C)C)C(=O)N[C@@H](Cc2ccc(OC)cc2)C(=O)O[C@H](C)C(=O)N2CCCC[C@H]2C(=O)N(C)[C@@H](C(C)C)C(=O)N[C@@H](C(C)C)C(=O)N(C)[C@@H](CC(=O)O)C(=O)N(C)[C@@H](C(C)C)C(=O)N1C [BK 202, cyclo- Pec-MeVal-Val-MeAsp-MeVal-MeIle-Gly-MeVal-TyrOMe-D-Lact!] (cyclo(G[NMeV]Y(Me)[dLac][Pip][NMeV]V[NMeD][NMeV][NMeI]))",inhibition of growth,[1],weaker
same,fungicidal effect on injured apples,[2],prevented the growth of fungus completely
same,"fungicidal effect (degree of infection, FIG. 10) compared to RONILAN®",[3],superior
same,inhibition of growth,[4],very strong
same,"growth, Isolate A",[5]; [14],0 mm
same,"growth, Isolate A",[5]; [15],0 mm
same,"growth, Isolate A",[5]; [16],0 mm
same,"growth, Isolate B",[6]; [14],0 mm
same,"growth, Isolate B",[6]; [15],0 mm
same,"growth, Isolate B",[6]; [16],0 mm
same,fungicidal activity,[7],practically no activity
same,fungicidal activity,[8],most active
same,stability at pH values above 8,[9]; 25°-55° C.,decreases rapidly
same,stability optimum (pH),"[9]; 25°-55° C., stability seems independent of temperature",~7
same,stability at pH values below 7,"[9]; except at 25° C., where the decrease seems rapid (possibly experimental error)",decreases slowly
same,inhibition of growth,[10],weaker
same,attack from the fungus on tomato plants,[11],No attack from the fungus was observed
same,inhibition of growth,[12],very strong
same,"IC50, ATP",[13],> 10 µg/mL
